The values below are quoted from earlier work in US20070191365A1, “3,4,6-Substituted pyridazines for treating neuropathic pain and associated syndromes” (priority 2006, published 2007).

The subject of this data set is animal model of Alzheimer's disease. To be noted: Ranaivo et al., J Neurosci. (2006) 26:662-670.

On to `c1ccc(-c2cc(-c3ccccc3)c(N3CCN(c4ncccn4)CC3)nn2)cc1` [4,6-diphenyl-3-(4-(pyrimidin-2-yl)piperazin-1-yl)pyridazine], for which the “efficacy in an animal model of Alzheimer's disease” value was “exhibits efficacy”.
